According to ChEMBL document CHEMBL3046611, “Anti-tubercular agents from Ammannia baccifera (Linn.)” (2013):
Values after ≈ are worked out from the molar mass of the structure shown.

Tests used:
[1] = test system: Mycobacterium tuberculosis; assay: Antitubercular activity against Mycobacterium tuberculosis H37Rv ATCC 27294 assessed as growth inhibition after 24 hr by BACTEC-460 radiometric susceptibility assay; format: functional; settings: H37Rv ATCC 27294, 24 h
[2] = test system: Mycobacterium tuberculosis; assay: Antimycobacterial activity against Mycobacterium tuberculosis H37Rv ATCC 27294 assessed as growth inhibition by agar dilution method; format: functional

Structure (SMILES) | MIC [1] [µg/mL] | MIC [2] [µg/mL]
O=C(O[C@H]1CCC(=O)c2ccccc21)c1ccccc1 [4-O-BENZOYL-ALPHA-TETRALONE] | 100 (≈ 376 µM) | –
O=C1CC[C@H](O)c2ccccc21 [(-)-4-HYDROXY-ALPHA-TETRALONE] | 50 (≈ 308 µM) | 4 (≈ 24.7 µM)
CCCCCCCCCCCCCCCC(=O)O[C@H]1CCC(=O)c2ccccc21 [4-O-PALMITOYL-ALPHATETRALONE] | 100 (≈ 250 µM) | –
COc1cc(C(=O)O[C@H]2CCC(=O)c3ccccc32)cc(OC)c1OC [4-O-(3,4,5-TRIMETHOXYBENZOYL)-ALPHA-TETRALONE] | 100 (≈ 281 µM) | –
CCCCCCCCCCCCCC(=O)O[C@H]1CCC(=O)c2ccccc21 [4-O-MYRICITOYL-ALPHA-TETRALONE] | 50 (≈ 134 µM) | –
O=C1CC[C@H](O[C@@H]2O[C@H](CO)[C@@H](O)[C@H](O)[C@H]2O)c2ccccc21 [TETRALONE-4-O-BETA-D-GLUCOPYRANOSIDE] | 100 (≈ 308 µM) | –
COc1cccc(C(=O)O[C@H]2CCC(=O)c3ccccc32)c1 [4-O-META-ANISOYL-ALPHA-TETRALONE] | 100 (≈ 337 µM) | –
